For assay [1], the target named is T1, AR (L702H) in LNCaP cells (Homo sapiens, UniProt P10275, L702H/T878A).
T1 construct: engineered to introduce the mutation L702H into the AR gene using CRISPR/Cas9; endogenous in cells; host or cells: LNCaP cells edited by CRISPR/Cas9 at the AR gene
Kind of assay: LNCaP Androgen Receptor L702H Imaging Assay (LNCaP cells engineered by CRISPR/Cas9). In kind it is cell-based. The following applies: LNCaP cells with AR L702H mutation, 24 h incubation; for DC50: concentration giving 50% of maximum degradation of AR (L702H) per curve fit; for Dmax: LNCaP; for Dmax / LNCaP AR (L702H) Degradation Dmax: maximum degradation observed, normalized as % of positive control. The method, then:
(§1) All work was performed in a sterile tissue culture hood up to the point of cell fixation. LNCaP cells were cultured at 6-8×10^6 per T175 flask and split every 3-4 days. Medium: RPMI (R7638, VWR Sigma) containing 10% FCS and 1% glutamine. Cells were plated in black wall transparent bottom plates at a density of 12,000 cells (Cedex™ Cell counter, Beckmann & Coulter), 40 μL per well, using a Multidrop (ThermoFisher).
(§2) Cells were dosed with test compound diluted in DMSO using an Echo 555/655™ (Labcyte) and the final concentration of DMSO in the well was 0.3%. A neutral control (DMSO) and a positive AR degrader control at 3 μM (a prior art AR PROTAC) were included. The Echo uses acoustic technology to perform direct microplate-to-microplate transfers of DMSO compound solutions to assay plates. The system can be programmed to transfer volumes as low as 2.5 nL in multiple increments between microplates and in so doing generates a serial dilution of compound in the assay plate which is then back-filled to normalise the DMSO concentration across the dilution range. Compounds were dispensed as a 12 point dose response with indicated concentrations. The plates were incubated at 37° C./5% CO2 for 24 h and then fixed and stained as below. 40 μL of 8% paraformaldehyde solution (v/v) in phosphate buffered saline (PBS) was added on top of the media already in the well using a Multidrop to fix plates giving a final concentration of 4% PFA (v/v) for 20-30 minutes (keep in fume hood to minimise PFA exposure). After 20-30 mins, the plates were washed with 3×PBS using a BioTek washer in a fume hood. A shake out of remaining volume in the well was performed to ensure best removal of remaining PBS. At this plates could be stored in PBS after washing for at least 3 days at 4° C., if so, PBS was removed by the BioTek before continuing with the next step.
(§3) The cells were incubated with a Mouse monoclonal Anti-AR antibody AR441 (DAKO M3562) (1:1000), diluted in modified blocking buffer (PBS+1% BSA+0.1% TritonX); 15 μL/well for 2 h at RT. The plates were then washed with 3×PBS using a BioTek washer. A shake out of remaining volume in the well was performed to ensure best removal of remaining PBS. Cells were then incubated with Goat anti-mouse secondary antibody 488 (Invitrogen A11001) (1:500) and nuclear stain, DRAQ5 (Abcam Ab108410) (1:2000) diluted in modified blocking buffer for 45 mins at room temperature 15 μL/well. Plates are then washed with 3×PBS using a BioTek washer, without final aspiration, and sealed with black plate seals. Plates could be stored after staining for three days at 4° C. before read if required.
(§4) Plates are read using a Cellomics Cellinsight to measure the Androgen Receptor level in each well. The data is exported into Genedata to perform curve fitting analysis. All data are normalized as % of positive control and the BellFit method automatically determines the correct fit method based on the presence of hook effect, choosing the BellFit when there is a hook and HillFit when there is no hook. Down-regulation of AR is expressed as a DC50 value and determined by calculation of the concentration of compound that is required to give 50% of maximum degradation of AR as per the curve fit for that compound. The maximum degradation observed for each compound is expressed as Dmax. The AR degradation data for compounds is shown in the table below and may be a result from a single experiment or an average of two or more experiments.
At this stage, anti-androgen therapy is largely ineffective due to AR amplification, overexpression or point mutation. One of the point mutations observed in patient populations is L702H in the AR Ligand Binding Domain. LNCAP cells have been engineered to introduce the mutation L702H into the AR gene using CRISPR/Cas9. The previously described imaging-based AR assay will monitor nuclear AR (L702H) levels in these cells to identify compounds that regulate AR (L702H). […]

Assay [2] concerns the target T2, AR (AR-full length) in LNCaP cells (Homo sapiens, UniProt P10275, T878A).
T2 construct: the prostate cancer cell line LNCaP (expressing AR-full length); endogenous in cells; host or cells: LNCaP
Kind of assay: LNCaP Androgen Receptor Imaging Assay (immunofluorescence of endogenous nuclear AR). Format: cell-based. The conditions noted are these: 24 h incubation; for DC50: concentration giving 50% of maximum degradation of AR per curve fit, single experiment or average of two or more; for Dmax: LNCaP; for Dmax / LNCaP AR Degradation Dmax: maximum degradation observed, normalized as % of positive control (prior art AR PROTAC at 3 μM). The method, then: This cell-based imaging assay uses immuno-fluorescence to measure endogenous nuclear AR staining in the prostate cancer cell line LNCaP (expressing AR-full length). The purpose of the assay is to identify compounds that regulate AR protein level according to the protocol laid out in the steps below.
as §1, §2, §3, §4

T2 sequence (P10275 whole entry T878A): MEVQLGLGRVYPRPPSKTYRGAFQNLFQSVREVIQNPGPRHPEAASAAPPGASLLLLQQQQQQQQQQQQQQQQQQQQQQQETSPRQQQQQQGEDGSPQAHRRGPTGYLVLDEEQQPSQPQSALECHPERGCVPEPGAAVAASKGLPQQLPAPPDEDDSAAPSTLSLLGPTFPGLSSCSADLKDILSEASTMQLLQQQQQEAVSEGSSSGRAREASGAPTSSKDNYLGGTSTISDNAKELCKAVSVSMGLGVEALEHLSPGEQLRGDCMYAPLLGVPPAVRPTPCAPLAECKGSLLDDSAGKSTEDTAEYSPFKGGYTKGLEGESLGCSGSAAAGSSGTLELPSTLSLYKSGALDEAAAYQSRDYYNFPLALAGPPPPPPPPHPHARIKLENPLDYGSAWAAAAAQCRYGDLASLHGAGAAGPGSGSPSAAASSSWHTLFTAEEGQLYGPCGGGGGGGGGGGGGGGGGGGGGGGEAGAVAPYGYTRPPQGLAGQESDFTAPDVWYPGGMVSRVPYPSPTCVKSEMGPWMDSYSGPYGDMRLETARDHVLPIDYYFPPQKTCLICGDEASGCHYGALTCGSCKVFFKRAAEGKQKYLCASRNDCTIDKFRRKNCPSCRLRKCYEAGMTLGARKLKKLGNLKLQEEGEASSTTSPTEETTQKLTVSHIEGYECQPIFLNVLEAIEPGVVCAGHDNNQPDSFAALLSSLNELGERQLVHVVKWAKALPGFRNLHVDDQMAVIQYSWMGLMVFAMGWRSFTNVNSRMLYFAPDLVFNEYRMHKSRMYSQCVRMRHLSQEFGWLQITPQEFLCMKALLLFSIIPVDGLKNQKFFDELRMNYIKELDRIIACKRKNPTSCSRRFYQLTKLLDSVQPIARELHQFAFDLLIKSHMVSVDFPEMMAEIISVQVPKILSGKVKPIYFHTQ
T2 sequence (Q96SW2 whole entry partner): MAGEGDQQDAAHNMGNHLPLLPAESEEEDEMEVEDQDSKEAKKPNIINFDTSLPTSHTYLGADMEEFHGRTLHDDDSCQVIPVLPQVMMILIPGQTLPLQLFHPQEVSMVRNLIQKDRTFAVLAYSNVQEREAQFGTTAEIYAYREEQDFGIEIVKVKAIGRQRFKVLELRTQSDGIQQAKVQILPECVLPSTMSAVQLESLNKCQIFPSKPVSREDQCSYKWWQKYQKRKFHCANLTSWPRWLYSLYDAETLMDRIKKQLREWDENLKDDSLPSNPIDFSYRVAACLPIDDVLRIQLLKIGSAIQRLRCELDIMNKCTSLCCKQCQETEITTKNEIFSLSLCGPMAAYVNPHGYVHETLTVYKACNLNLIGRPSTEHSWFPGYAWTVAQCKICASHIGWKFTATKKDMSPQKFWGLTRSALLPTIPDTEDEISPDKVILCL
T1 sequence (P10275 whole entry L702H/T878A): as the sequence (P10275 whole entry T878A) above, with L702H counted along it
T1 sequence (Q96SW2 whole entry partner): as the sequence (Q96SW2 whole entry partner) above

In assay [1], `N#Cc1c[nH]c2c(N3CCC(c4ccc(N5CCC(CN6CCN(c7ccc8c(c7)CN(C7CCC(=O)NC7=O)C8=O)CC6)CC5)cc4)CC3)ccc(F)c12` (single isomer, unassigned) [Example 3, 7-(4-{4-[4-({4-[2-(2,6-Dioxopiperidin-3-yl)-1-oxo-2,3-dihydro-1H-isoindol-5-yl]piperazin-1-yl}methyl)piperidin-1-yl]phenyl}piperidin-1-yl)-4-fluoro-1H-indole-3-carbonitrile] had a DC50 of 17 nM and a Dmax of 99%. Also, in assay [2], the DC50 is 18 nM and the maximal degradation (Dmax) turned out to be 85%.

As to `N#Cc1c[nH]c2c(N3CCC(c4ccc(N5CCC(CN6CCN(c7ccc8c(c7)CN(C7CCC(=O)NC7=O)C8=O)CC6)CC5)cc4)CC3)ccc(F)c12` (single isomer, unassigned) [Example 4, 7-(4-{4-[4-({4-[2-(2,6-Dioxopiperidin-3-yl)-1-oxo-2,3-dihydro-1H-isoindol-5-yl]piperazin-1-yl}methyl)piperidin-1-yl]phenyl}piperidin-1-yl)-4-fluoro-1H-indole-3-carbonitrile], in assay [1], the DC50 stood at 5 nM and the “LNCaP AR (L702H) Degradation Dmax” value is given as 106%. Further, in assay [2], it took 6 nM to reach half-maximal degradation (DC50) and the “LNCaP AR Degradation Dmax” value is 96%.

In assay [1], `COc1cc(N2CCN(CC3CCN(c4ccc(C5CCN(c6ccc(Cl)c7c(C#N)c[nH]c67)CC5)cc4)CC3)CC2)cc2c1C(=O)N(C1CCC(=O)NC1=O)C2` (single isomer, unassigned) [Example 16, 4-Chloro-7-[4-(4-{4-[(4-{2-[(3R*)-2,6-dioxopiperidin-3-yl]-7-methoxy-1-oxo-2,3-dihydro-1H-isoindol-5-yl}piperazin-1-yl)methyl]piperidin-1-yl}phenyl)piperidin-1-yl]-1H-indole-3-carbonitrile] displayed a DC50 of 24 nM and a Dmax of 84%. In assay [2], it took 12 nM to reach half-maximal degradation (DC50) and the “LNCaP AR Degradation Dmax” value is 77%.

Take `COc1cc(N2CCN(CC3CCN(c4ccc(C5CCN(c6ccc(Cl)c7c(C#N)c[nH]c67)CC5)cc4)CC3)CC2)cc2c1C(=O)N(C1CCC(=O)NC1=O)C2` (single isomer, unassigned) [Example 17, 4-Chloro-7-[4-(4-{4-[(4-{2-[(3S*)-2,6-dioxopiperidin-3-yl]-7-methoxy-1-oxo-2,3-dihydro-1H-isoindol-5-yl}piperazin-1-yl)methyl]piperidin-1-yl}phenyl)piperidin-1-yl]-1H-indole-3-carbonitrile]: in assay [1], the DC50 amounted to 4 nM and the “LNCaP AR (L702H) Degradation Dmax” value was found to be 102%. In addition, in assay [2], the DC50 was 3 nM and the “LNCaP AR Degradation Dmax” value is 100%.

Regarding `N#Cc1c[nH]c2c(N3CCC(c4ccc(N5CCC(CN6CCN(c7ccc8c(c7)CN(C7CCC(=O)NC7=O)C8=O)CC6)CC5)cc4)CC3)ccc(Cl)c12` (single isomer, unassigned) [Example 18, 4-Chloro-7-[4-(4-{4-[(4-{2-[(3R*)-2,6-dioxopiperidin-3-yl]-1-oxo-2,3-dihydro-1H-isoindol-5-yl}piperazin-1-yl)methyl]piperidin-1-yl}phenyl)piperidin-1-yl]-1H-indole-3-carbonitrile], in assay [1], the DC50 was found to be 18 nM and the Dmax came to 96%. In assay [2], this compound showed a DC50 of 14 nM and a Dmax of 93%.

Turning to `N#Cc1c[nH]c2c(N3CCC(c4ccc(N5CCC(CN6CCN(c7ccc8c(c7)CN(C7CCC(=O)NC7=O)C8=O)CC6)CC5)cc4)CC3)ccc(Cl)c12` (single isomer, unassigned) [Example 19, 4-Chloro-7-[4-(4-{4-[(4-{2-[(3S*)-2,6-dioxopiperidin-3-yl]-1-oxo-2,3-dihydro-1H-isoindol-5-yl}piperazin-1-yl)methyl]piperidin-1-yl}phenyl)piperidin-1-yl]-1H-indole-3-carbonitrile], in assay [1], half-maximal degradation (DC50) was put at 5 nM and the “LNCaP AR (L702H) Degradation Dmax” value was determined as 102%. Further, in assay [2], the DC50 was 4 nM and the “LNCaP AR Degradation Dmax” value came out at 102%.

For the compound `COc1nc(N2CCN(CC3CCN(c4ccc(C5CCN(c6ccc(Cl)c7c(C#N)c[nH]c67)CC5)cc4)CC3)CC2)cc2c1C(=O)N(C1CCC(=O)NC1=O)C2` (single isomer, unassigned) [Example 35, 4-Chloro-7-[4-(4-{4-[(4-{2-[(3R*)-2,6-dioxopiperidin-3-yl]-4-methoxy-3-oxo-2,3-dihydro-1H-pyrrolo[3,4-c]pyridin-6-yl}piperazin-1-yl)methyl]piperidin-1-yl}phenyl)piperidin-1-yl]-1H-indole-3-carbonitrile], the figures for the DC50 in assay [1] and in assay [2] were 29 nM and 19 nM, respectively. The Dmax in assay [1] worked out at 91%; in assay [2], 84%.

As for `COc1nc(N2CCN(CC3CCN(c4ccc(C5CCN(c6ccc(Cl)c7c(C#N)c[nH]c67)CC5)cc4)CC3)CC2)cc2c1C(=O)N(C1CCC(=O)NC1=O)C2` (single isomer, unassigned) [Example 36, 4-Chloro-7-[4-(4-{4-[(4-{2-[(3S*)-2,6-dioxopiperidin-3-yl]-4-methoxy-3-oxo-2,3-dihydro-1H-pyrrolo[3,4-c]pyridin-6-yl}piperazin-1-yl)methyl]piperidin-1-yl}phenyl)piperidin-1-yl]-1H-indole-3-carbonitrile], in assay [1], it took 7 nM to reach half-maximal degradation (DC50) and the “LNCaP AR (L702H) Degradation Dmax” value is on record as 102%. In assay [2], the DC50 worked out at 5 nM and the “LNCaP AR Degradation Dmax” value is 102%.

Take `COc1nc(N2CCN(CC3CCN(c4ccc([C@@H]5CCCN(c6ccc(Cl)c7c(C#N)c[nH]c67)C5)cc4)CC3)CC2)cc2c1C(=O)N(C1CCC(=O)NC1=O)C2` (single isomer, unassigned) [Example 39, 4-Chloro-7-[(3S)-3-(4-{4-[(4-{2-[(3R*)-2,6-dioxopiperidin-3-yl]-4-methoxy-3-oxo-2,3-dihydro-1H-pyrrolo[3,4-c]pyridin-6-yl}piperazin-1-yl)methyl]piperidin-1-yl}phenyl)piperidin-1-yl]-1H-indole-3-carbonitrile]: the DC50 in assay [1] came out at 33 nM; in assay [2] it was 16 nM. The figures for the Dmax in assay [1] and in assay [2] were 99% and 88%, respectively.

As for `N#Cc1c[nH]c2c(C3CCCN(c4ccc(N5CCC(CN6CCN(c7ccc8c(c7)CN(C7CCC(=O)NC7=O)C8=O)CC6)CC5)cc4)C3)ccc(Cl)c12` (single isomer, unassigned) [Example 94, 4-Chloro-7-[(3S*)-1-{4-[4-({4-[2-(2,6-dioxopiperidin-3-yl)-1-oxo-2,3-dihydro-1H-isoindol-5-yl]piperazin-1-yl}methyl)piperidin-1-yl]phenyl}piperidin-3-yl]-1H-indole-3-carbonitrile], the DC50 in assay [2] was more than 3000 nM.
